Laboratory results as given in US8258257B2 (The Regents of the University of California, priority 2008, dated 2012).
“Also recorded” adds a separate entry of the source. Where no end group is shown, it is not given here.

Columns and labels:
Cldn-4 Mutant R4 [1] = target: T1, Cldn-4 Mutant R4 (Mus musculus, UniProt O35054)
T1 construct: made in house; host or cells: E. coli BL21 (pLysS)

GST-Cldn4.Ecl2 (R4) = GST-Cldn4.Ecl2 (R4) (Mus musculus, UniProt O35054); type: binding; details: for Kd: read-out: calculated equilibrium affinity (KD)
[2] = target: Claudin-4 Ecl2 domain (synthetic biotinylated peptide) (Mus musculus, UniProt O35054); type: binding
GST protein = GST protein (Schistosoma japonicum, UniProt P08515); type: binding
Chain of GST protein (P08515 whole entry, looked up): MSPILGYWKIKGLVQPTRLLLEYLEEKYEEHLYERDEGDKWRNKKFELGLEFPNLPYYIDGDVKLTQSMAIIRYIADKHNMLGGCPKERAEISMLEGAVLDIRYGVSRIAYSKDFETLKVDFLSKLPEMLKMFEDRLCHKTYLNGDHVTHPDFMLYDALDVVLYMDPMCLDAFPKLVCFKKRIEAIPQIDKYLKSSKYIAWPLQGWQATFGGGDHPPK

Cldn-4 Mutant R4 [3] = target: T1, Cldn-4 Mutant R4; assay: KD (nM)
Description: (§1) Table printed on a drawing sheet, FIGURE 3
(§2) Title: Binding Kinetics of Various Peptides to Cldn-4 Mutant R4
Head of the field: KD (nM)
(§3) The processed specific binding sensorgrams are presented for each ligand. The 50 nM analyte concentration was repeated twice to confirm reproducibility. The binding kinetics was analyzed by “BIAevalution 3.1” software with 1:1 (langmuir) binding mode, and the binding constants were summarized in the table.
(§4) First copying reader's note: Panel B of FIGURE 3; panel A is a sensorgram plot and is left out.
(§5) Where the first naming reader finds the target: table_title: Binding Kinetics of Various Peptides to Cldn-4 Mutant R4

Cldn-4 Mutant R4 [4] = target: T1, Cldn-4 Mutant R4; assay: Kd (1/s)
Description: as §1, §2
Head of the field: Kd (1/s)
as §3, §4, §5

T1 sequence (O35054 117-181, change not shown): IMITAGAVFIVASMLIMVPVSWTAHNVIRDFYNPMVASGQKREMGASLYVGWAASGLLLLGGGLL

Sequence: SLDAGQYVLVMKANSSYSGNYPYSILFQKF [Cpe30] [listing 1 of 2 here]
- Ka (Cldn-4 Mutant R4 [1]): 130000 M⁻¹ s⁻¹

Sequence: SLDAGQYVLVMKANSSYSGNYPYSILFQKF [Cpe30] [listing 2 of 2 here]
- on-rate (GST-Cldn4.Ecl2 (R4)): similar
- specific binding to Cldn4 Ecl2 (GST-Cldn4.R4) (GST-Cldn4.Ecl2 (R4)): optimal binding activity; also recorded: strong specific binding
- Kd (GST-Cldn4.Ecl2 (R4)): 2.56 nM
- binding to lariat Ecl2 (cyclic, disulfide bond) [2]: failed to bind
- binding to linear B-Ecl2 peptide [2]: No specific binding
- binding to tethered Ecl2 (B-Ecl2-B, biotin at both termini) [2]: failed to bind
- binding to GST protein only (GST protein): did not bind

Sequence: APWTEHSYYLSL [CC4P-13R]
- off-rate (GST-Cldn4.Ecl2 (R4)): slowest off-rate

Sequence: ASNSSYSGNYSIL [Cpe30 MT3]
- specific binding to Cldn4 Ecl2 (GST-Cldn4.R4) (GST-Cldn4.Ecl2 (R4)): did not bind

Sequence: SSYSGNYPYSIL [Cpe30 MT1]
- specific binding to Cldn4 Ecl2 (GST-Cldn4.R4) (GST-Cldn4.Ecl2 (R4)): no specific binding; also recorded: did not bind

Sequence: VTHKTCPPACWP [CC4P-2]
- specific binding to Cldn4 Ecl2 (GST-Cldn4.R4) (GST-Cldn4.Ecl2 (R4)): no specific binding

Sequence: APWTEHSYYLSL [CC4P-13] [listing 1 of 2 here]
- KD (stated in words) (GST-Cldn4.Ecl2 (R4)): nanomolar level
- specific binding to Cldn4 Ecl2 (GST-Cldn4.R4) (GST-Cldn4.Ecl2 (R4)): clear specific binding; also recorded: orientation of biotinylation did not affect the binding; also recorded: significant affinity

Sequence: SPWSEPAYTLAP [CC4P-5] [listing 1 of 2 here]
- KD (stated in words) (GST-Cldn4.Ecl2 (R4)): nanomolar level
- specific binding to Cldn4 Ecl2 (GST-Cldn4.R4) (GST-Cldn4.Ecl2 (R4)): clear specific binding; also recorded: significant affinity

Sequence: NSSYSGNYPYSILFQKF [Cpe17, NSSYSGNYPYSILFQKF]
- off-rate (GST-Cldn4.Ecl2 (R4)): slightly slower off-rate
- on-rate (GST-Cldn4.Ecl2 (R4)): similar
- specific binding to Cldn4 Ecl2 (GST-Cldn4.R4) (GST-Cldn4.Ecl2 (R4)): strong specific binding
- Kd (GST-Cldn4.Ecl2 (R4)): 1.57 nM
- Kd (Cldn-4 Mutant R4 [3]): 2.12 nM

Sequence: APWTEHSYYLSL [CC4P-13] [listing 2 of 2 here]
- Kd (Cldn-4 Mutant R4 [4]): 0.000742 s⁻¹

Sequence: SPWSEPAYTLAP [CC4P-5] [listing 2 of 2 here]
- Ka (Cldn-4 Mutant R4 [1]): 315000 M⁻¹ s⁻¹
- Kd (Cldn-4 Mutant R4 [4]): 0.00141 s⁻¹
